Laboratory results from ChEMBL document CHEMBL5356967, “Design, synthesis, evaluation and optimization of novel azole analogues as potent antifungal agents” (Bioorg Med Chem, 2024).
Values after ≈ are worked out from the molar mass of the structure shown.

Columns and labels:
Assay type in all cases: functional
Candida albicans [1] = experiment: Antifungal activity against Candida albicans Y0109 assessed as inhibition of fungal growth incubated for 24 hrs by broth microdilution method
Candida albicans [2] = experiment: Antifungal activity against Candida albicans SC5314 assessed as inhibition of fungal growth incubated for 24 hrs by broth microdilution method
Cryptococcus neoformans = experiment: Antifungal activity against Cryptococcus neoformans ATCCBLS108 assessed as inhibition of fungal growth incubated for 72 hrs by broth microdilution method
Candida parapsilosis = experiment: Antifungal activity against Candida parapsilosis 0306392 assessed as inhibition of fungal growth incubated for 24 hrs by broth microdilution method; conditions: Lodderomyces parapsilosis
Candida tropicalis = experiment: Antifungal activity against Candida tropicalis 0370354 assessed as inhibition of fungal growth incubated for 24 hrs by broth microdilution method
Trichophyton rubrum = experiment: Antifungal activity against Trichophyton rubrum 0501124 assessed as inhibition of fungal growth incubated for 24 hrs by broth microdilution method
Nannizzia gypsea = experiment: Antifungal activity against Microsporum gypseum 0310388 assessed as inhibition of fungal growth incubated for 24 hrs by broth microdilution method
Aspergillus fumigatus = experiment: Antifungal activity against Aspergillus fumigatus 0504656 assessed as inhibition of fungal growth incubated for 48 hrs by broth microdilution method
Candida albicans [3] = experiment: Potency index, ratio of Ketoconazole MIC80 to test compound MIC80 for antifungal activity against Candida albicans Y0109 assessed as inhibition of fungal growth incubated for 24 hrs by broth microdilution method
Candida albicans [4] = experiment: Potency index, ratio of Fluconazole MIC80 to test compound MIC80 for antifungal activity against Candida albicans Y0109 assessed as inhibition of fungal growth incubated for 24 hrs by broth microdilution method
Candida albicans [5] = experiment: Potency index, ratio of Ketoconazole MIC80 to test compound MIC80 for antifungal activity against Candida albicans SC5314 assessed as inhibition of fungal growth incubated for 24 hrs by broth microdilution method
Candida albicans [6] = experiment: Potency index, ratio of Fluconazole MIC80 to test compound MIC80 for antifungal activity against Candida albicans SC5314 assessed as inhibition of fungal growth incubated for 24 hrs by broth microdilution method
Candida albicans [7] = experiment: Antifungal activity against fluconazole-resistant Candida albicans 901 assessed as inhibition of fungal growth incubated for 24 hrs by broth microdilution method
Candida albicans [8] = experiment: Antifungal activity against fluconazole-resistant Candida albicans 904 assessed as inhibition of fungal growth incubated for 24 hrs by broth microdilution method

Compound | MIC80 (Candida albicans [1]) | MIC80 (Candida albicans [2]) | MIC80 (Cryptococcus neoformans) | MIC80 (Candida parapsilosis) | MIC80 (Candida tropicalis) | MIC80 (Trichophyton rubrum) | MIC80 (Nannizzia gypsea) | MIC80 (Aspergillus fumigatus) | Ratio (Candida albicans [3]) | Ratio (Candida albicans [4]) | Ratio (Candida albicans [5]) | Ratio (Candida albicans [6]) | MIC80 (Candida albicans [7]) | MIC80 (Candida albicans [8])
Oc1ccc([C@@]2(Cn3ccnc3)OC[C@H](Cn3cc(C4CC4)nn3)O2)c(F)c1 (mixture of isomers) | 0.063 mg/L | 0.25 mg/L | 0.25 mg/L | 0.25 mg/L | 0.25 mg/L | 4 mg/L | 0.125 mg/L | 16 mg/L | – | – | – | – | – | –
Oc1ccc([C@@]2(Cn3ccnc3)OC[C@H](Cn3cc(COc4ccccc4)nn3)O2)c(F)c1 (mixture of isomers) | 0.063 mg/L | 0.063 mg/L | 0.063 mg/L | 0.125 mg/L | 0.125 mg/L | 1 mg/L | 0.25 mg/L | 16 mg/L | – | – | – | – | – | –
CNCCc1cn(C[C@H]2CO[C@](Cn3ccnc3)(c3ccc(O)cc3F)O2)nn1 (mixture of isomers) | 0.063 mg/L | 0.125 mg/L | 0.125 mg/L | 0.25 mg/L | 0.25 mg/L | 1 mg/L | 0.25 mg/L | > 64 mg/L | – | – | – | – | – | –
Oc1ccc([C@@]2(Cn3ccnc3)OC[C@H](Cn3cc(-c4ccccn4)nn3)O2)c(F)c1 (mixture of isomers) | 0.063 mg/L | 0.25 mg/L | 0.125 mg/L | 0.25 mg/L | 4 mg/L | 4 mg/L | 0.125 mg/L | 16 mg/L | – | – | – | – | – | –
CCCN(CCC)CCc1cn(C[C@H]2CO[C@](Cn3ccnc3)(c3ccc(O)cc3F)O2)nn1 (mixture of isomers) | 0.016 mg/L | 0.016 mg/L | 0.125 mg/L | 0.25 mg/L | 1 mg/L | 0.125 mg/L | 0.125 mg/L | > 64 mg/L | 64 | 16 | 64 | 16 | > 64 mg/L | > 64 mg/L
CCCc1ccc(-c2cn(C[C@H]3CO[C@](Cn4ccnc4)(c4ccc(O)cc4F)O3)nn2)cc1 (mixture of isomers) | 0.063 mg/L | 0.125 mg/L | 0.25 mg/L | 2 mg/L | 4 mg/L | 2 mg/L | 2 mg/L | > 64 mg/L | – | – | – | – | – | –
CCCCCOc1ccc(-c2cn(C[C@H]3CO[C@](Cn4ccnc4)(c4ccc(O)cc4F)O3)nn2)cc1 (mixture of isomers) | 0.016 mg/L | 0.016 mg/L | 0.063 mg/L | 0.125 mg/L | 1 mg/L | 0.5 mg/L | 0.25 mg/L | 16 mg/L | 64 | 16 | 64 | 16 | > 64 mg/L | > 64 mg/L
Cc1ccc(-c2cn(C[C@H]3CO[C@](Cn4ccnc4)(c4ccc(O)cc4F)O3)nn2)cc1 (mixture of isomers) | 0.063 mg/L | 0.063 mg/L | 2 mg/L | 2 mg/L | 0.25 mg/L | 4 mg/L | 4 mg/L | > 64 mg/L | – | – | – | – | – | –
Cc1cccc(-c2cn(C[C@H]3CO[C@](Cn4ccnc4)(c4ccc(O)cc4F)O3)nn2)c1 (mixture of isomers) | 0.063 mg/L | 0.063 mg/L | 0.125 mg/L | 0.25 mg/L | 0.25 mg/L | 2 mg/L | 0.125 mg/L | > 64 mg/L | – | – | – | – | – | –
CC1CCN(CCc2cn(C[C@H]3CO[C@](Cn4ccnc4)(c4ccc(O)cc4F)O3)nn2)CC1 (mixture of isomers) | 0.063 mg/L | 0.016 mg/L | 0.063 mg/L | 0.125 mg/L | 0.25 mg/L | 1 mg/L | 0.25 mg/L | > 64 mg/L | – | – | – | – | – | –
Oc1ccc([C@@]2(Cn3ccnc3)OC[C@H](Cn3cc(-c4ccccc4)nn3)O2)c(F)c1 (mixture of isomers) | 0.063 mg/L | 0.125 mg/L | 0.125 mg/L | 0.125 mg/L | 0.5 mg/L | 0.25 mg/L | 0.125 mg/L | > 64 mg/L | – | – | – | – | – | –
Oc1ccc([C@@]2(Cn3ccnc3)OC[C@H](Cn3cc(CCN4CCC(O)CC4)nn3)O2)c(F)c1 (mixture of isomers) | 0.063 mg/L | 0.016 mg/L | 0.125 mg/L | 0.125 mg/L | 0.25 mg/L | 0.25 mg/L | 0.125 mg/L | 16 mg/L | – | – | – | – | – | –
Oc1ccc([C@@]2(Cn3ccnc3)OC[C@H](Cn3cc(CCN4CCCC4)nn3)O2)c(F)c1 (mixture of isomers) | 0.063 mg/L | 0.063 mg/L | 0.063 mg/L | 0.125 mg/L | 0.25 mg/L | 0.25 mg/L | 0.5 mg/L | 16 mg/L | – | – | – | – | – | –
Oc1ccc([C@@]2(Cn3ccnc3)OC[C@H](Cn3cc(C(O)c4ccccc4)nn3)O2)c(F)c1 (mixture of isomers) | 0.063 mg/L | 0.125 mg/L | 0.063 mg/L | 0.125 mg/L | 0.125 mg/L | 1 mg/L | 0.25 mg/L | > 64 mg/L | – | – | – | – | – | –
Oc1ccc([C@@]2(Cn3ccnc3)OC[C@H](Cn3cc(-c4cccc(F)c4)nn3)O2)c(F)c1 (mixture of isomers) | 0.063 mg/L | 0.125 mg/L | 1 mg/L | 0.125 mg/L | 1 mg/L | 2 mg/L | 1 mg/L | > 64 mg/L | – | – | – | – | – | –
CCN(CC)CCc1cn(C[C@H]2CO[C@](Cn3ccnc3)(c3ccc(O)cc3F)O2)nn1 (mixture of isomers) | 0.016 mg/L | 0.016 mg/L | 0.063 mg/L | 0.125 mg/L | 0.125 mg/L | 0.25 mg/L | 0.125 mg/L | 16 mg/L | 64 | 16 | 64 | 16 | > 64 mg/L | > 64 mg/L
Oc1ccc([C@@]2(Cn3ccnc3)OC[C@H](Cn3cc(CCNC4CC4)nn3)O2)c(F)c1 (mixture of isomers) | 0.063 mg/L | 0.125 mg/L | 0.125 mg/L | 0.25 mg/L | 0.125 mg/L | 0.125 mg/L | 0.25 mg/L | > 64 mg/L | – | – | – | – | – | –
CC(C)(C)c1ccc(-c2cn(C[C@H]3CO[C@](Cn4ccnc4)(c4ccc(O)cc4F)O3)nn2)cc1 (mixture of isomers) | 0.063 mg/L | 0.063 mg/L | 0.063 mg/L | 0.125 mg/L | 0.125 mg/L | 0.25 mg/L | 0.25 mg/L | > 64 mg/L | – | – | – | – | – | –
Oc1ccc([C@@]2(Cn3ccnc3)OC[C@H](Cn3cc(-c4ccc(F)cc4)nn3)O2)c(F)c1 (mixture of isomers) | 0.063 mg/L | 0.125 mg/L | 0.125 mg/L | 0.25 mg/L | 4 mg/L | 4 mg/L | 0.125 mg/L | > 64 mg/L | – | – | – | – | – | –
N#CCc1ccc(-c2cn(C[C@H]3CO[C@](Cn4ccnc4)(c4ccc(O)cc4F)O3)nn2)cc1 (mixture of isomers) | 0.063 mg/L | 0.125 mg/L | 0.125 mg/L | 0.125 mg/L | 1 mg/L | 0.25 mg/L | 0.125 mg/L | 16 mg/L | – | – | – | – | – | –
COc1ccc(-c2cn(C[C@H]3CO[C@](Cn4ccnc4)(c4ccc(O)cc4F)O3)nn2)cc1 (mixture of isomers) | 0.063 mg/L | 0.063 mg/L | 0.063 mg/L | 0.125 mg/L | 0.25 mg/L | 0.5 mg/L | 0.25 mg/L | > 64 mg/L | – | – | – | – | – | –
CCC(C)n1ncn(-c2ccc(N3CCN(c4ccc(OCC5COC(Cn6cncn6)(c6ccc(Cl)cc6Cl)O5)cc4)CC3)cc2)c1=O (configuration not stated) [ITRACONAZOLE] | 0.063 mg/L (≈ 0.0893 µM) | 0.25 mg/L (≈ 0.354 µM) | 0.063 mg/L (≈ 0.0893 µM) | 0.25 mg/L (≈ 0.354 µM) | 0.25 mg/L (≈ 0.354 µM) | 0.063 mg/L (≈ 0.0893 µM) | 0.25 mg/L (≈ 0.354 µM) | 1 mg/L (≈ 1.42 µM) | – | – | – | – | – | –
CC(=O)N1CCN(c2ccc(OC[C@@H]3CO[C@@](Cn4ccnc4)(c4ccc(Cl)cc4Cl)O3)cc2)CC1 [LEVOKETOCONAZOLE] | 1 mg/L (≈ 1.88 µM) | 1 mg/L (≈ 1.88 µM) | 1 mg/L (≈ 1.88 µM) | 2 mg/L (≈ 3.76 µM) | 32 mg/L (≈ 60.2 µM) | 4 mg/L (≈ 7.53 µM) | 16 mg/L (≈ 30.1 µM) | > 64 mg/L | – | – | – | – | > 64 mg/L | > 64 mg/L
C[C@@H](c1ncncc1F)[C@](O)(Cn1cncn1)c1ccc(F)cc1F [VORICONAZOLE] | 0.016 mg/L (≈ 0.0458 µM) | 0.016 mg/L (≈ 0.0458 µM) | 0.016 mg/L (≈ 0.0458 µM) | 0.016 mg/L (≈ 0.0458 µM) | 0.063 mg/L (≈ 0.18 µM) | 0.063 mg/L (≈ 0.18 µM) | 0.063 mg/L (≈ 0.18 µM) | 0.25 mg/L (≈ 0.716 µM) | – | – | – | – | – | –
